Assay [1] deals with T1, hepatic lipase (HL) (Homo sapiens, UniProt P11150).
T1 construct: made in house; host or cells: COS cells (conditioned medium, partially purified)
T1 sequence (P11150 23-499): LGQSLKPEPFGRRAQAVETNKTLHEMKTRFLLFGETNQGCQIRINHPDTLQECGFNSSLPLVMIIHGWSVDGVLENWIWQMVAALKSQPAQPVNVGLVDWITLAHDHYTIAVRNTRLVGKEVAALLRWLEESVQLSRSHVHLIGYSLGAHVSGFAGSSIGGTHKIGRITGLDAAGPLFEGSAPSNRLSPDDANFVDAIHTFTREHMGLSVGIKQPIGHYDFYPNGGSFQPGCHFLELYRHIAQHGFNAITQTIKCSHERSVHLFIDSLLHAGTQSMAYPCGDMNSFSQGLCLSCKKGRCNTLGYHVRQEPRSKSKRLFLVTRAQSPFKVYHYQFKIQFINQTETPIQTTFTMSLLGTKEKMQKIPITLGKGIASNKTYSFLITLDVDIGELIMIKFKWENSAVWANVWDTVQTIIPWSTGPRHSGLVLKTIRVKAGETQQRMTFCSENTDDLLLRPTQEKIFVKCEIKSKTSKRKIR
In words: Hepatic lipase (HL) enzymatic assay, fluorescent substrate A10070 in DMPG vesicles. The class given is biochemical. The note with it: HL partially purified from conditioned media of COS cells; compound preincubated 30 min at 37° C; read-out: HL IC50. The method in brief: (§1)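 Vesicles prepared: A10070 dried with DMPG, resuspended in HEPES pH 8.0/NaCl/EDTA, sonicated on ice. Enzyme incubated with compound 30 min at 37° C. Reaction started with 1:10 diluted vesicles. Fluorescence (490/530 nm) followed 60 min; slope from 300–900 secs gives rate.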

The target in assay [2] is T2, Endothelial lipase (EL) (Homo sapiens, UniProt Q9Y5X9).
T2 construct: HT-1080 cells that were transformed using RAGE technology (Athersys) to overexpress endogenous EL; endogenous in cells; conditioned medium used
T2 sequence (Q9Y5X9 21-500): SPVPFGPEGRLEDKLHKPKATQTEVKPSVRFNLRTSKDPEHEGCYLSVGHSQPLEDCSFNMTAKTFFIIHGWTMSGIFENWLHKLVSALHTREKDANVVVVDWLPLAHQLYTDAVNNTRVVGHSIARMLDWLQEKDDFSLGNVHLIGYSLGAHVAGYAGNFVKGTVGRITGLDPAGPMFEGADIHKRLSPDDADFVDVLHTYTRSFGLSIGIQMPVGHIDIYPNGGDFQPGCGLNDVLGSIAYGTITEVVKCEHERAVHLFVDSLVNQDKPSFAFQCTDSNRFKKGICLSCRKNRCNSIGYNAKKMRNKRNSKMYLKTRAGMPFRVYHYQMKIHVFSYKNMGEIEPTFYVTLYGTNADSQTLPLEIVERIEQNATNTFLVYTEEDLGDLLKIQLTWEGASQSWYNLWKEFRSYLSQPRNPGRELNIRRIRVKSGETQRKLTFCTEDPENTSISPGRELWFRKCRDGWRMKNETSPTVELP
In words: Endothelial lipase (EL) enzymatic assay, fluorescent substrate A10070 in DMPG vesicles. The settings on record: EL from conditioned media of HT-1080 cells; compound preincubated 30 min at 37° C; read-out: EL IC50. The format is biochemical. The method in brief:
as §1

These results are taken from patent US20140011799A1 (Bristol-Myers Squibb Company, priority 2012, published 2014).

Where only a bound is given, the exact number is not on record here.

A word on the IC50: it is the concentration needed to halve the response being measured.

For `COCCNC(=O)c1cccc(-c2ccc3nc(C(c4nnc(CC5(C)NC(=O)NC5=O)o4)S(C)(=O)=O)sc3c2)c1` (centres unmarked) [Example 205, 3-{2-[methanesulfonyl({5-[(4-methyl-2,5-dioxoimidazolidin-4-yl)methyl]-1,3,4-oxadiazol-2-yl})methyl]-1,3-benzothiazol-6-yl}-N-(2-methoxyethyl)benzamide], the half-maximal inhibitory concentration (IC50) in assay [1] was found to be 0.449 µM; in assay [2] it was 0.018 µM.
For the molecule `CC(C)Cn1cc(-c2ccc3nc(C(c4nnc(CNS(N)(=O)=O)o4)S(=O)(=O)Cc4ccccc4)sc3c2)cn1` (centres unmarked) [Example 136, N-((5-((benzylsulfonyl)(6-(1-isobutyl-1H-pyrazol-4-yl)-1,3-benzothiazol-2-yl)methyl)-1,3,4-oxadiazol-2-yl)methyl)sulfamide], the IC50 in assay [1] and in assay [2] was less than 0.01 µM in each case.
Take `CC(C)C(O)C(=O)NCc1nnc(C(c2nc3ccc(-c4ccccc4)cc3s2)S(C)(=O)=O)o1` (centres unmarked) [Example 154, 2-hydroxy-3-methyl-N-((5-((methylsulfonyl)(6-phenyl-1,3-benzothiazol-2-yl)methyl)-1,3,4-oxadiazol-2-yl)methyl)butanamide]: the IC50 was found to be 0.025 µM in assay [1] and 0.054 µM in assay [2].
The corresponding values for `COCc1ccc(-c2ccc3nc(C(c4nnc(CNS(N)(=O)=O)o4)S(=O)(=O)Cc4ccc(F)cc4)sc3c2)cc1` (centres unmarked) [Example 242, N-({5-[(4-fluorophenyl)methanesulfonyl ({6-[4-(methoxymethyl)phenyl]-1,3-benzothiazol-2-yl})methyl]-1,3,4-oxadiazol-2-yl}methyl) aminosulfonamide] are 0.001 µM and 0.001 µM.
The matching figures for `Cn1cc(-c2ccc3nc(C(c4nnc(CNS(N)(=O)=O)o4)S(=O)(=O)CCC(=O)O)sc3c2)cn1` (centres unmarked) [Example 174, 3-(((6-(1-Methyl-1H-pyrazol-4-yl)-1,3-benzothiazol-2-yl)(5-((sulfamoylamino)methyl)-1,3,4-oxadiazol-2-yl)methyl)sulfonyl)propanoic acid]: 0.124 µM and 0.011 µM.
The corresponding values for `CN1CCN(C(=O)c2cccc(-c3ccc4nc(C(c5nnc(CNS(N)(=O)=O)o5)S(C)(=O)=O)sc4c3)c2)CC1` (centres unmarked) [Example 193, N-((5-((6-(3-((4-methyl-1-piperazinyl)carbonyl)phenyl)-1,3-benzothiazol-2-yl)(methylsulfonyl)methyl)-1,3,4-oxadiazol-2-yl)methyl)sulfamide] are 0.105 µM and less than 0.01 µM.
For the molecule `NS(=O)(=O)NCc1nnc(C(c2nc3ccc(-c4ccc(Cl)c(Cl)c4)cc3s2)S(=O)(=O)Cc2ccccc2)o1` (centres unmarked) [Example 148, N-((5-((benzylsulfonyl)(6-(3,4-dichlorophenyl)-1,3-benzothiazol-2-yl)methyl)-1,3,4-oxadiazol-2-yl)methyl)sulfamide], the IC50 in assay [1] and in assay [2] was less than 0.01 µM each time.
As to `CC1(O)CN(C(=O)c2cccc(-c3ccc4nc(C(c5nnc(CNS(N)(=O)=O)o5)S(=O)(=O)CCC(F)(F)F)sc4c3)c2)C1` (centres unmarked) [Example 192, N-((5-((6-(3-((3-Hydroxy-3-methyl-1-azetidinyl)carbonyl)phenyl)-1,3-benzothiazol-2-yl)((3,3,3-trifluoropropyl)sulfonyl)methyl)-1,3,4-oxadiazol-2-yl)methyl)sulfamide], the concentration for half-maximal inhibition (IC50) in assay [1] is 0.081 µM; in assay [2], less than 0.01 µM.
As for `Cc1noc(C)c1-c1ccc2sc(C(c3nnc(CNS(N)(=O)=O)o3)S(C)(=O)=O)nc2c1` (centres unmarked) [Example 248, N-[(5-{[5-(dimethyl-1,2-oxazol-4-yl)-1,3-benzothiazol-2-yl] (methanesulfonyl)methyl}-1,3,4-oxadiazol-2-yl)methyl] aminosulfonamide], the values for the IC50 in assay [1] and in assay [2] were 0.026 µM and 0.005 µM, respectively.
For `CS(=O)(=O)C(c1nnc(CNS(N)(=O)=O)o1)c1nc2ccc(-c3cccc(C(=O)NCCO)c3)cc2s1` (centres unmarked) [Example 257, N-(2-hydroxyethyl)-3-{2-[methanesulfonyl({5-[(sulfamoylamino)methyl]-1,3,4-oxadiazol-2-yl})methyl]-1,3-benzothiazol-6-yl}benzamide], the 50% inhibitory concentration (IC50) in assay [1] worked out at 0.029 µM; in assay [2] it was 0.01 µM.
In the case of `CS(=O)(=O)C(c1nnc(CNS(N)(=O)=O)o1)c1nc2ccc(-c3cccc(C(=O)N4CC(F)(F)C4)c3)cc2s1` (centres unmarked) [Example 202, N-((5-((6-(3-((3,3-difluoro-1-azetidinyl)carbonyl)phenyl)-1,3-benzothiazol-2-yl)(methylsulfonyl)methyl)-1,3,4-oxadiazol-2-yl)methyl)sulfamide], the results for the IC50 in assay [1] and in assay [2] were 0.035 µM and less than 0.01 µM, respectively.
Consider `CN(C(=O)c1cccc(-c2ccc3nc(C(c4nnc(CC5(C)NC(=O)NC5=O)o4)S(C)(=O)=O)sc3c2)c1)C1CC1` (centres unmarked) [Example 221, N-cyclopropyl-3-{2-[methanesulfonyl({5-[(4-methyl-2,5-dioxoimidazolidin-4-yl)methyl]-1,3,4-oxadiazol-2-yl})methyl]-1,3-benzothiazol-6-yl}-N-methylbenzamide], for which the IC50 in assay [1] worked out at 0.025 µM; in assay [2], 0.001 µM.
As to `CS(=O)(=O)C(c1nnc(CNS(N)(=O)=O)o1)c1nc2cc(-c3ccccc3)ccc2s1` (centres unmarked) [Example 249, N-({5-[methanesulfonyl(5-phenyl-1,3-benzothiazol-2-yl)methyl]-1,3,4-oxadiazol-2-yl}methyl) aminosulfonamide], the IC50 in assay [1] and in assay [2] was 0.001 µM in each case.
For the molecule `CS(=O)(=O)C(c1nnc(CNS(N)(=O)=O)o1)c1nc2cc(-c3ccc(F)nc3)ccc2s1` (centres unmarked) [Example 233, N-[(5-{[5-(6-fluoropyridin-3-yl)-1,3-benzothiazol-2-yl] (methanesulfonyl)methyl}-1,3,4-oxadiazol-2-yl)methyl]aminosulfonamide], the figures for the concentration for half-maximal inhibition (IC50) in assay [1] and in assay [2] were 0.018 µM and 0.001 µM, respectively.
On to `CC1(Cc2nnc(C(c3nc4ccc(-c5cccc(C(=O)N6CC(F)C6)c5)cc4s3)S(C)(=O)=O)o2)NC(=O)NC1=O` (centres unmarked) [Example 206, 5-{[5-({6-[3-(3-fluoroazetidine-1-carbonyl)phenyl]-1,3-benzothiazol-2-yl} (methanesulfonyl)methyl)-1,3,4-oxadiazol-2-yl]methyl}-5-methyl-imidazolidine-2,4-dione], for which the half-maximal inhibitory concentration (IC50) was determined as 0.125 µM in assay [1] and 0.016 µM in assay [2].
Regarding `NS(=O)(=O)NCc1nnc(C(c2nc3ccc(-c4ccc(F)cc4)cc3s2)S(=O)(=O)Cc2ccccc2)o1` (centres unmarked) [Example 127, N-((5-((benzylsulfonyl)(6-(4-fluorophenyl)-1,3-benzothiazol-2-yl)methyl)-1,3,4-oxadiazol-2-yl)methyl) sulfamide], the IC50 in assay [1] and in assay [2] was less than 0.01 µM in each case.
Consider `CNC(=O)c1cccc(-c2ccc3nc(C(c4nnc(CC5(C)NC(=O)NC5=O)o4)S(C)(=O)=O)sc3c2)c1` (centres unmarked) [Example 218, 3-{2-[methanesulfonyl({5-[(4-methyl-2,5-dioxoimidazolidin-4-yl)methyl]-1,3,4-oxadiazol-2-yl})methyl]-1,3-benzothiazol-6-yl}-N-methylbenzamide], for which the values for the concentration for half-maximal inhibition (IC50) in assay [1] and in assay [2] were 0.262 µM and 0.01 µM, respectively.
The corresponding values for `CC1(Cc2nnc(C(c3nc4ccc(-c5cccc(C(=O)N6CC(F)(F)C6)c5)cc4s3)S(C)(=O)=O)o2)NC(=O)NC1=O` (centres unmarked) [Example 208, 5-{[5-({6-[3-(3,3-difluoroazetidine-1-carbonyl)phenyl]-1,3-benzothiazol-2-yl} (methanesulfonyl)methyl)-1,3,4-oxadiazol-2-yl]methyl}-5-methyl-imidazolidine-2,4-dione] are 0.131 µM and 0.177 µM.
Take `CS(=O)(=O)C(c1nnc(CC2SC(=O)NC2=O)o1)c1nc2ccc(-c3cnc(O)nc3)cc2s1` (centres unmarked) [Example 182, 5-((5-((Methylsulfonyl)(6-(2-oxo-1,2-dihydro-5-pyrimidinyl)-1,3-benzothiazol-2-yl)methyl)-1,3,4-oxadiazol-2-yl)methyl)-1,3-thiazolidine-2,4-dione]: the half-inhibitory concentration (IC50) in assay [1] was 0.084 µM; in assay [2], less than 0.01 µM.
